Reference: publication PMC6849348, “Theranostic Application of a Novel G-Quadruplex-Forming DNA Aptamer Targeting Malate Synthase of Mycobacterium tuberculosis” (Molecular Therapy. Nucleic Acids, 2019)

Molecular target: MS (malate synthase, GlcB, Rv1837c) (Mycobacterium tuberculosis, UniProt P9WK17)
Experiment: DTNB assay of released CoA-SH at […] nm
Assay type: biochemical

MS (malate synthase, GlcB, Rv1837c), sequence (P9WK17 whole entry, looked up): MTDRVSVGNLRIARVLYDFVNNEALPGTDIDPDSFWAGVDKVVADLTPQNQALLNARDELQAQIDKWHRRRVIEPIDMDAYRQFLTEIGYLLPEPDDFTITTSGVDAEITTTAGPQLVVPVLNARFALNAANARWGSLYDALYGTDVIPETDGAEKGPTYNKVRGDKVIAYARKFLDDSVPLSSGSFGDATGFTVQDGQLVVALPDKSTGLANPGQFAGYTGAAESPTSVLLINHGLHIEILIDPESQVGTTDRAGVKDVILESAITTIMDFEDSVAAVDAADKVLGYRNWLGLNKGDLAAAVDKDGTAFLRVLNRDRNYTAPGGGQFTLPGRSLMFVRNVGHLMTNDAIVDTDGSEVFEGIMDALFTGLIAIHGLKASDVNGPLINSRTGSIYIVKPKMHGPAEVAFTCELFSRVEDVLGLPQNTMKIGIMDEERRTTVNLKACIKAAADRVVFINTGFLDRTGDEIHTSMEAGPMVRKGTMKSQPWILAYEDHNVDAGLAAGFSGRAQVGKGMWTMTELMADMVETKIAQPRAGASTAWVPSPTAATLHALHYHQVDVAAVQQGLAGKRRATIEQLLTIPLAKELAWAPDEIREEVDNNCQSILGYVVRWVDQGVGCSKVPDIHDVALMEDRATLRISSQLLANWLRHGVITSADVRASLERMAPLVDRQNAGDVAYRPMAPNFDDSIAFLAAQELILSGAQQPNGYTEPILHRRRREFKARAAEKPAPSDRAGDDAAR

Compound	IC50
O=C(O)C(=O)CBr [bromopyruvate]	114 µM
C=C(OP(=O)(O)O)C(=O)O [phosphoenolpyruvate]	374 µM
